Literature values as cited in US4024245A, “Antibiotic A-30912 and process for production thereof” (priority 1976, dated 1977).

System: dermatophytes
Details: F. Benz et al., Helv. Chim. Acta 57, 2459-2477 (1974)

Echinocandin B
activity against dermatophytes: inactive against dermatophytes
